Assay results: PubChem BioAssay AID328 (DTP/NCI, 2004)
“And” between values parts separate entries of the source, which are not always exact repeats. Equal entries are not always repeated. Toxic doses and inconclusive results are not listed.

System: BDF1 mice, P388 leukemia ip, median survival T/C
Test: NCI In Vivo Anticancer Drug Screen. Data for tumor model P388 Leukemia (intraperitoneal) in B6D2F1 (BDF1) mice
Settings: endpoint: median survival time, higher = longer survival
Method in brief: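 Each value expresses how treatment altered survival: treated-mouse outcome over vehicle-mouse outcome, both groups bearing the transplanted tumour.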

[1] = dose: 100.0 mg/kg/injection, schedule: Q01DX009 (ip), vehicle: saline
[2] = dose: 200.0 mg/kg/injection, schedule: Q01DX009 (ip), vehicle: saline
[3] = dose: 400.0 mg/kg/injection, schedule: Q01DX009 (ip), vehicle: saline
[4] = dose: 100.0 mg/kg/injection, schedule: Q04DX003 (ip), vehicle: saline
[5] = dose: 200.0 mg/kg/injection, schedule: Q04DX003 (ip), vehicle: saline
[6] = dose: 400.0 mg/kg/injection, schedule: Q04DX003 (ip), vehicle: saline
[7] = dose: 200.0 mg/kg/injection, schedule: Q01DX009 (ip), vehicle: Klucel (hydroxypropylcellulose) (HPC)
[8] = dose: 100.0 mg/kg/injection, schedule: Q01DX001 (ip), vehicle: Klucel (hydroxypropylcellulose) (HPC)
[9] = dose: 200.0 mg/kg/injection, schedule: Q04DX003 (ip), vehicle: Klucel (hydroxypropylcellulose) (HPC)
[10] = dose: 400.0 mg/kg/injection, schedule: Q04DX003 (ip), vehicle: Klucel (hydroxypropylcellulose) (HPC)
[11] = dose: 6.25 mg/kg/injection, schedule: Q01DX009 (ip), vehicle: saline
[12] = dose: 12.5 mg/kg/injection, schedule: Q01DX009 (ip), vehicle: saline
[13] = dose: 12.5 mg/kg/injection, schedule: Q04DX003 (ip), vehicle: saline
[14] = dose: 25.0 mg/kg/injection, schedule: Q01DX009 (ip), vehicle: saline
[15] = dose: 25.0 mg/kg/injection, schedule: Q04DX003 (ip), vehicle: saline
[16] = dose: 100.0 mg/kg/injection, schedule: Q01DX009 (ip), vehicle: saline with Tween-80
[17] = dose: 50.0 mg/kg/injection, schedule: Q01DX009 (ip), vehicle: saline
[18] = dose: 50.0 mg/kg/injection, schedule: Q04DX003 (ip), vehicle: saline
[19] = dose: 100.0 mg/kg/injection, schedule: Q04DX003 (ip), vehicle: saline with Tween-80
[20] = dose: 200.0 mg/kg/injection, schedule: Q04DX003 (ip), vehicle: saline with Tween-80
[21] = dose: 400.0 mg/kg/injection, schedule: Q04DX003 (ip), vehicle: saline with Tween-80

CCOC(=O)NC
T/C [1]: 104 % of control | T/C [2]: 100 % of control | T/C [3]: 112 % of control

O.O=C(O)O.O=C(O)O.O=C(O)O.[Zr]
T/C [1]: 96 % of control | T/C [4]: 100 % of control | T/C [2]: 96 % of control | T/C [5]: 100 % of control | T/C [3]: 96 % of control | T/C [6]: 95 % of control

O=C1NN(CCO)C(=S)Nc2ccccc21
T/C (dose: 50.0 mg/kg/injection, schedule: Q01DX009 (ip), vehicle: Klucel (hydroxypropylcellulose) (HPC)): 100 % of control | T/C (dose: 100.0 mg/kg/injection, schedule: Q01DX009 (ip), vehicle: Klucel (hydroxypropylcellulose) (HPC)): 100 % of control | T/C [7]: 90 % of control

C=CC12COC(=O)C(=C)C1C(O)C1C(=C)C(=O)OC1C2 (stereo unspecified)
T/C (dose: 3.75 mg/kg/injection, schedule: Q01DX009 (ip), vehicle: saline + alcohol): 113 % of control | T/C (dose: 15.0 mg/kg/injection, schedule: Q01DX009 (ip), vehicle: saline + alcohol): 90 % of control

c1ccc2c(c1)C1=NCCN1c1ccccc1-2
T/C (dose: 5.3 mg/kg/injection, schedule: Q01DX009 (ip), vehicle: Klucel (hydroxypropylcellulose) (HPC)): 86 % of control | T/C (dose: 8.0 mg/kg/injection, schedule: Q01DX009 (ip), vehicle: Klucel (hydroxypropylcellulose) (HPC)): 86 % of control | T/C (dose: 10.0 mg/kg/injection, schedule: Q01DX009 (ip), vehicle: Klucel (hydroxypropylcellulose) (HPC)): 115 % of control | T/C (dose: 12.0 mg/kg/injection, schedule: Q01DX009 (ip), vehicle: Klucel (hydroxypropylcellulose) (HPC)): 95 % of control | T/C (dose: 17.7 mg/kg/injection, schedule: Q01DX009 (ip), vehicle: Klucel (hydroxypropylcellulose) (HPC)): 108 % of control | T/C (dose: 20.0 mg/kg/injection, schedule: Q01DX009 (ip), vehicle: Klucel (hydroxypropylcellulose) (HPC)): 110 % of control | T/C (dose: 40.0 mg/kg/injection, schedule: Q01DX009 (ip), vehicle: Klucel (hydroxypropylcellulose) (HPC)): 150 % of control

CCCCCCCCCCCCCCC1C(=O)NN(c2ccccc2)C1=O (stereo unspecified)
T/C (dose: 37.5 mg/kg/injection, schedule: Q01DX009 (ip), vehicle: saline with Tween-80): 108 % of control | T/C (dose: 75.0 mg/kg/injection, schedule: Q01DX009 (ip), vehicle: saline with Tween-80): 115 % of control | T/C (dose: 150.0 mg/kg/injection, schedule: Q01DX009 (ip), vehicle: saline with Tween-80): 122 % of control

CC1(C)CS(=O)(=O)CC1=O
T/C (dose: 25.0 mg/kg/injection, schedule: Q01DX001 (ip), vehicle: Klucel (hydroxypropylcellulose) (HPC)): 100 % of control | T/C (dose: 50.0 mg/kg/injection, schedule: Q01DX001 (ip), vehicle: Klucel (hydroxypropylcellulose) (HPC)): 100 % of control | T/C [8]: 90 % of control and 104 % of control

CC(=O)OCC12CCC(C)=CC1O[C@H]1[C@@H](OC(C)=O)[C@H](OC(C)=O)[C@]2(C)[C@@]12CO2 (stereo partly specified)
T/C (dose: 2.5 mg/kg/injection, schedule: Q04DX002 (ip), vehicle: saline + alcohol): 96 % of control

CC1=NN(c2ccccc2)C(=O)C1=Nc1c(C)[nH]n(-c2ccccc2)c1=O
T/C (dose: 30.0 mg/kg/injection, schedule: Q01DX009 (ip), vehicle: saline with Tween-80): 96 % of control | T/C (dose: 60.0 mg/kg/injection, schedule: Q01DX009 (ip), vehicle: saline with Tween-80): 91 % of control

OCCc1ccccc1
T/C (dose: 100.0 mg/kg/injection, schedule: Q01DX009 (ip), vehicle: saline sonified): 100 % of control | T/C (dose: 200.0 mg/kg/injection, schedule: Q01DX009 (ip), vehicle: saline sonified): 100 % of control

CN(C)C1C(=O)C(C(=O)NCNC(CCS(C)=O)C(=O)O)=C(O)C2(O)C(=O)C3=C(O)c4c(O)cccc4C(C)(O)C3CC12 (stereo unspecified)
T/C (dose: 100.0 mg/kg/injection, schedule: Q01DX001 (ip), vehicle: saline): 100 % of control | T/C (dose: 200.0 mg/kg/injection, schedule: Q01DX001 (ip), vehicle: saline): 90 % of control | T/C (dose: 400.0 mg/kg/injection, schedule: Q01DX001 (ip), vehicle: saline): 86 % of control

C[C@]12CC[C@H]3C(=CCc4cc(O)ccc43)[C@@H]1CCC2=O
T/C (dose: 100.0 mg/kg/injection, schedule: Q04DX003 (ip), vehicle: Klucel (hydroxypropylcellulose) (HPC)): 95 % of control | T/C [7]: 91 % of control | T/C [9]: 90 % of control | T/C [10]: 95 % of control

Oc1cccc2c1[O][Sb][O]2
T/C (dose: 3.0 mg/kg/injection, schedule: Q01DX009 (ip), vehicle: saline with Tween-80): 102 % of control | T/C (dose: 6.0 mg/kg/injection, schedule: Q01DX009 (ip), vehicle: saline with Tween-80): 110 % of control | T/C (dose: 11.0 mg/kg/injection, schedule: Q04DX003 (ip), vehicle: saline with Tween-80): 112 % of control | T/C (dose: 16.5 mg/kg/injection, schedule: Q04DX003 (ip), vehicle: saline with Tween-80): 112 % of control | T/C (dose: 25.0 mg/kg/injection, schedule: Q01DX009 (ip), vehicle: saline with Tween-80): 110 % of control

Cc1cc(=O)oc2c(N)nccc12
T/C (dose: 12.5 mg/kg/injection, schedule: Q01DX005 (ip), vehicle: saline with Tween-80): 121 % of control

C/C(=N\Nc1nc2ccccc2o1)c1ccncc1
T/C [9]: 104 % of control | T/C [10]: 86 % of control

C[N+]1=C2CCCC2=C(N)CC1
T/C [11]: 110 % of control | T/C [12]: 115 % of control | T/C [13]: 95 % of control | T/C [14]: 100 % of control | T/C [15]: 100 % of control

CCOC(=O)N1CCN(CCCCCOc2ccc(CC(C)(C)C)cc2Cl)CC1
T/C (dose: 50.0 mg/kg/injection, schedule: Q01DX009 (ip), vehicle: saline with Tween-80): 121 % of control | T/C [16]: 118 % of control

CN(N=O)C(N)=O
T/C (dose: 25.0 mg/kg/injection, schedule: Q04DX003 (ip), vehicle: saline with Tween-80): 150 % of control | T/C (dose: 37.5 mg/kg/injection, schedule: Q04DX003 (ip), vehicle: saline with Tween-80): 154 % of control

COc1ccc2nc(Cl)c(C)c(C)c2c1
T/C [12]: 96 % of control | T/C [14]: 88 % of control | T/C [15]: 100 % of control | T/C [17]: 93 % of control | T/C [18]: 100 % of control | T/C [4]: 109 % of control | T/C [5]: 90 % of control | T/C [3]: 92 % of control | T/C [6]: 100 % of control

CC(C)(C)C([NH-])=O.CC(C)(C)C([NH-])=O.[Cl][Pt+2][Cl]
T/C (dose: 3.12 mg/kg/injection, schedule: Q01DX009 (ip), vehicle: saline): 88 % of control | T/C [11]: 92 % of control | T/C [12]: 108 % of control | T/C [13]: 105 % of control | T/C [14]: 92 % of control | T/C [15]: 107 % of control | T/C [17]: 94 % of control | T/C [18]: 98 % of control

O=C(/C=C/C=C/c1ccccc1)c1ccc(Cl)cc1
T/C [16]: 115 % of control | T/C [19]: 100 % of control | T/C (dose: 200.0 mg/kg/injection, schedule: Q01DX009 (ip), vehicle: saline with Tween-80): 115 % of control | T/C [20]: 90 % of control | T/C (dose: 400.0 mg/kg/injection, schedule: Q01DX009 (ip), vehicle: saline with Tween-80): 110 % of control | T/C [21]: 109 % of control

CC(C)(C)CC(C)(C)c1ccc(OCCOc2ccccc2NC(=O)CC(=O)c2cccc([N+](=O)[O-])c2)cc1
T/C [8]: 95 % of control | T/C (dose: 200.0 mg/kg/injection, schedule: Q01DX001 (ip), vehicle: Klucel (hydroxypropylcellulose) (HPC)): 95 % of control | T/C (dose: 400.0 mg/kg/injection, schedule: Q01DX001 (ip), vehicle: Klucel (hydroxypropylcellulose) (HPC)): 95 % of control

CCOC(CNC(=O)NC1CCCCC1)OCC
T/C [19]: 90 % of control | T/C [20]: 90 % of control | T/C [21]: 90 % of control

C#CC(C)(C)OCC(O)CCl (stereo unspecified)
T/C [17]: 95 % of control | T/C [1]: 100 % of control | T/C [4]: 91 % of control | T/C [2]: 91 % of control | T/C [5]: 100 % of control | T/C [6]: 112 % of control
